Test results as given in patent US8536168B2 (Novartis AG, priority 2007, dated 2013).
Where two headings read alike, the source gives them in different places.

Tests used:
[1] = target: mouse Smoothened receptor (Mus musculus, UniProt P56726); test: Smo binding assay, displacement of radio-labeled smoothened agonist, filter binding format (mouse); conditions: displacement of small molecule agonist of Smoothened, read-out: Mouse Smo bdg., IC50
Excerpt: A Smo binding assay was developed using radio-labeled smoothened agonist for compound competition.

[2] = target: human Smoothened receptor (Homo sapiens, UniProt Q99835); test: Smo binding assay, displacement of radio-labeled smoothened agonist, filter binding format (human); conditions: displacement of small molecule agonist of Smoothened, read-out: Human Smo bdg., IC50
Chain of human Smoothened receptor (Q99835 28-787): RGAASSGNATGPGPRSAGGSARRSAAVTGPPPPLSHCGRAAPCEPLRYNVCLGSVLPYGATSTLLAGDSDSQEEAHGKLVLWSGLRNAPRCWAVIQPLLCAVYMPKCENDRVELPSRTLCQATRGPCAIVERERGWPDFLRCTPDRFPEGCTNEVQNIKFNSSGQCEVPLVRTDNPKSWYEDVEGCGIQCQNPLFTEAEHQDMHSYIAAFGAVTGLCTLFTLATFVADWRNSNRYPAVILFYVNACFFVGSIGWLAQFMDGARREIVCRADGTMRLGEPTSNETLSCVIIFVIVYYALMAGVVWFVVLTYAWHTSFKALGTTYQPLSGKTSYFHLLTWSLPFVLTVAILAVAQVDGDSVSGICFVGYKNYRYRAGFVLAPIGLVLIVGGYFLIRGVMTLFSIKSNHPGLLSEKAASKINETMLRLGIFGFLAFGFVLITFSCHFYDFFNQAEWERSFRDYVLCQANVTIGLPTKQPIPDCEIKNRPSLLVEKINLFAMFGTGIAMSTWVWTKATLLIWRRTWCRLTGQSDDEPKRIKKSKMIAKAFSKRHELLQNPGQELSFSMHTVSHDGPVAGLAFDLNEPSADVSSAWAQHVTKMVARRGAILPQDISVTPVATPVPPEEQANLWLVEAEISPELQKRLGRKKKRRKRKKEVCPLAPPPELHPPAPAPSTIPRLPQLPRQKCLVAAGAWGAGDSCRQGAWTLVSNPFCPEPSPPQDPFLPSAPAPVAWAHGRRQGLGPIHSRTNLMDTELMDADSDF
Excerpt: A Smo binding assay was developed using radio-labeled smoothened agonist for compound competition. Table 9 lists the IC50 for displacement of a small molecule agonist of Smoothened determined in a filter binding format for the mouse and human Smoothened receptor.

[3] = test system: Gli-luciferase activity; test: Reporter gene assay (RGA) in TMHh12 cells, antagonism of Gli-luciferase activity in the presence of a Smo agonist; type: cell-based
Method: Activity of the compounds was evaluated using a reporter gene assay (RGA) in TMHh12 cells.

[4] = 25 nM small molecule Smo agonist, read-out: RGA (25 nM Smo agonist) IC50
[5] = read-out: RGA (1 nM Smo agonist) IC50, 1 nM small molecule Smo agonist

Chain of mouse Smoothened receptor (P56726 33-793): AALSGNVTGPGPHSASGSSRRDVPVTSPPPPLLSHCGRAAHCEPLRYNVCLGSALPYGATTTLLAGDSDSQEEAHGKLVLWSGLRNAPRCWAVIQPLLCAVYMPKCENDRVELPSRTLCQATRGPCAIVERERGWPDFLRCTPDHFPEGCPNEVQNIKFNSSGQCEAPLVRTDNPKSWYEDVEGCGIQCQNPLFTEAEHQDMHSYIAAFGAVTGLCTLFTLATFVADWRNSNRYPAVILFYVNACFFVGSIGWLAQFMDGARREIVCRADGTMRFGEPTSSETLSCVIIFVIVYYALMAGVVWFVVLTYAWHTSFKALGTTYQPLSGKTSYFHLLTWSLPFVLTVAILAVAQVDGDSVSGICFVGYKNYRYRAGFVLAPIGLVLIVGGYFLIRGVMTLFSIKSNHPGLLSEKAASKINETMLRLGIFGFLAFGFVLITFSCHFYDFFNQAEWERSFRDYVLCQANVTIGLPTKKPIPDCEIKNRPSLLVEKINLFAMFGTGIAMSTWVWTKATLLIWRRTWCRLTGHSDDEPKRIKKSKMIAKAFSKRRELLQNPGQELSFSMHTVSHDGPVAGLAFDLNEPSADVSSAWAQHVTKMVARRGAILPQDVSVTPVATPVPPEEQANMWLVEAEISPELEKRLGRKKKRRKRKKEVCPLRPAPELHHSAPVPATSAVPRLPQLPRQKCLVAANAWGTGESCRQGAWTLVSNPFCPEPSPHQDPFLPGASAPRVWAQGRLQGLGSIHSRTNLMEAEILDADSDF

IC50 [1] | IC50 [2] | IC50 [3, 4] | IC50 [3, 5] | SMILES
0.1 to 1 µM | 0.1 to 1 µM | 1 to 10 µM | 0.1 to 1 µM | CC(C)(C)OC(=O)NC1CN(C(=O)c2ccc(N3CCN(c4nnc(Cc5ccccc5)c5ccccc45)CC3)nc2)C1 [Example 54v]
1 to 10 µM | 10 to 40 µM | 1 to 10 µM | 0.1 to 1 µM | NC1CN(C(=O)c2ccc(N3CCN(c4nnc(Cc5ccccc5)c5ccccc45)CC3)nc2)C1 [Example 54w]
0.1 to 1 µM | < 0.1 µM | 0.1 to 1 µM | 0.1 to 1 µM | O=C(NC1CN(C(=O)OCc2ccccc2)C1)c1ccc(N2CCN(c3nnc(Cc4ccccc4)c4ccccc34)CC2)nc1 [Example 54x]
1 to 10 µM | 1 to 10 µM | 1 to 10 µM | 1 to 10 µM | O=C(NC1CNC1)c1ccc(N2CCN(c3nnc(Cc4ccccc4)c4ccccc34)CC2)nc1 [Example 54y]
0.1 to 1 µM | 0.1 to 1 µM | 0.1 to 1 µM | < 0.1 µM | O=C(c1ccc(N2CCN(c3nnc(Cc4ccccc4)c4ccccc34)CC2)nc1)N1CC(O)C1 [Example 54z]
0.1 to 1 µM | 0.1 to 1 µM | 1 to 10 µM | 0.1 to 1 µM | FC(F)(F)c1ccc(N2CCN(c3nnc(Cc4ccccc4)c4ccccc34)CC2)cc1 [Example 55, 1-Benzyl-4-[4-(4-trifluoromethyl-phenyl)-piperazin-1-yl]-phthalazine]
< 0.1 µM | 0.1 to 1 µM | 1 to 10 µM | < 0.1 µM | N#Cc1ccc(N2CCN(c3nnc(Cc4cccc(C(F)(F)F)c4)c4ccccc34)CC2)nc1 [Example 56, 6-{4-[4-(3-Trifluoromethyl-benzyl)-phthalazin-1-yl]-piperazin-1-yl}-nicotinonitrile]
< 0.1 µM | < 0.1 µM | 0.1 to 1 µM | < 0.1 µM | N#Cc1ccc(Cc2nnc(N3CCN(c4ccc(C#N)cn4)CC3)c3ccccc23)cc1 [Example 57]
1 to 10 µM | 1 to 10 µM | – | 1 to 10 µM | COc1ccc(Cc2nnc(N3CCN(c4ccc(C#N)cn4)CC3)c3ccccc23)cc1OC [Example 58]
< 0.1 µM | < 0.1 µM | 0.1 to 1 µM | < 0.1 µM | N#Cc1ccc(N2CCN(c3nnc(Cc4ccc(Cl)cc4)c4ccccc34)CC2)nc1 [Example 59]
< 0.1 µM | 0.1 to 1 µM | 0.1 to 1 µM | < 0.1 µM | N#Cc1ccc(N2CCN(c3nnc(Cc4cccc(Cl)c4)c4ccccc34)CC2)nc1 [Example 60]
< 0.1 µM | 0.1 to 1 µM | 1 to 10 µM | 0.1 to 1 µM | N#Cc1ccc(N2CCN(c3nnc(CCc4ccccc4)c4ccccc34)CC2)nc1 [Example 61]
< 0.1 µM | < 0.1 µM | 1 to 10 µM | < 0.1 µM | N#Cc1ccc(N2CCN(c3nnc(Cc4ccc5ccccc5c4)c4ccccc34)CC2)nc1 [Example 62]
0.1 to 1 µM | 0.1 to 1 µM | 1 to 10 µM | 0.1 to 1 µM | N#Cc1ccc(N2CCN(c3nnc(Cc4ccc(C(F)(F)F)cc4)c4ccccc34)CC2)nc1 [Example 63]
0.1 to 1 µM | 0.1 to 1 µM | 1 to 10 µM | < 0.1 µM | COc1ccc(Cc2nnc(N3CCN(c4ccc(C#N)cn4)CC3)c3ccccc23)cc1 [Example 64]
0.1 to 1 µM | 0.1 to 1 µM | 1 to 10 µM | 0.1 to 1 µM | N#Cc1ccc(N2CCN(c3nnc(Cc4cccc(C#N)c4)c4ccccc34)CC2)nc1 [Example 65]
< 0.1 µM | < 0.1 µM | 0.1 to 1 µM | < 0.1 µM | N#Cc1ccc(N2CCN(c3nnc(Cc4ccc(Br)cc4)c4ccccc34)CC2)nc1 [Example 66]
< 0.1 µM | 0.1 to 1 µM | 0.1 to 1 µM | 0.1 to 1 µM | N#Cc1ccc(N2CCN(c3nnc(Cc4cccc(Br)c4)c4ccccc34)CC2)nc1 [Example 67]
1 to 10 µM | 1 to 10 µM | 1 to 10 µM | 0.1 to 1 µM | CC(c1ccccc1)c1nnc(N2CCN(c3ccc(C#N)cn3)CC2)c2ccccc12 (stereo not shown) [Example 68]
0.1 to 1 µM | 0.1 to 1 µM | 1 to 10 µM | < 0.1 µM | Cc1cccc(Cc2nnc(N3CCN(c4ccc(C#N)cn4)CC3)c3ccccc23)c1 [Example 69]
0.1 to 1 µM | 0.1 to 1 µM | 0.1 to 1 µM | < 0.1 µM | CC(=O)NCc1ccc(N2CCN(c3nnc(Cc4ccccc4)c4ccccc34)CC2)nc1 [Example 70, N-{6-[4-(4-Benzyl-phthalazin-1-yl)-piperazin-1-yl]-pyridin-3-ylmethyl}-acetamide]
0.1 to 1 µM | 0.1 to 1 µM | 0.1 to 1 µM | < 0.1 µM | CCC(=O)NCc1ccc(N2CCN(c3nnc(Cc4ccccc4)c4ccccc34)CC2)cc1 [Example 78a]

IC50 [1] | IC50 [2] | IC50 [3, 4] | IC50 [3, 5] | SMILES
0.1 to 1 µM | 0.1 to 1 µM | 0.1 to 1 µM | < 0.1 µM | COCC(=O)NCc1ccc(N2CCN(c3nnc(Cc4ccccc4)c4ccccc34)CC2)cc1 [Example 78b]
< 0.1 µM | < 0.1 µM | < 0.1 µM | < 0.1 µM | CC(C)CC(=O)NCc1ccc(N2CCN(c3nnc(Cc4ccccc4)c4ccccc34)CC2)cc1 [Example 78c]
0.1 to 1 µM | 1 to 10 µM | 0.1 to 1 µM | 0.1 to 1 µM | N#Cc1ccc(N2CCN(c3cnc(Cc4ccccc4)c4ccccc34)CC2)nc1 [Example 79, 6-[4-(1-Benzyl-isoquinolin-4-yl)-piperazin-1-yl]-nicotinonitrile]
1 to 10 µM | 10 to 40 µM | 10 to 40 µM | 1 to 10 µM | N#Cc1ccc(N2CCN(c3cnc(Cc4cccc(Cl)c4)c4ccccc34)CC2)nc1 [Example 81]
1 to 10 µM | 1 to 10 µM | 10 to 40 µM | 1 to 10 µM | N#Cc1ccc(N2CCN(c3cnc(Cc4cccc(C(F)(F)F)c4)c4ccccc34)CC2)nc1 [Example 82]
1 to 10 µM | 1 to 10 µM | 0.1 to 1 µM | 0.1 to 1 µM | N#Cc1ccc(N2CCN(c3ncc(Cc4ccccc4)c4ccccc34)CC2)nc1 [Example 83, 6-[4-(4-Benzyl-isoquinolin-1-yl)-piperazin-1-yl]-nicotinonitrile]
0.1 to 1 µM | 0.1 to 1 µM | 1 to 10 µM | < 0.1 µM | Cc1cc(Cc2ccc(F)cc2)nnc1N1CCN(c2ccc(C#N)cn2)CC1 [Example 84]
0.1 to 1 µM | 0.1 to 1 µM | – | 0.1 to 1 µM | Cc1cc(N2CCN(c3ccc(C#N)cn3)CC2)nnc1Cc1ccc(F)cc1 [Example 85]
1 to 10 µM | 1 to 10 µM | 1 to 10 µM | 0.1 to 1 µM | Cc1cc(Cc2ccccc2)nnc1N1CCN(c2ccc(C#N)cn2)CC1 [Example 86]
0.1 to 1 µM | 0.1 to 1 µM | – | 0.1 to 1 µM | Cc1cc(N2CCN(c3ccc(C#N)cn3)CC2)nnc1Cc1ccccc1 [Example 87]
0.1 to 1 µM | 0.1 to 1 µM | 1 to 10 µM | < 0.1 µM | Cc1cc(Cc2ccccc2)nnc1N1CCN(c2ccc(C(F)(F)F)cn2)CC1 [Example 88]
< 0.1 µM | < 0.1 µM | – | 0.1 to 1 µM | Cc1cc(N2CCN(c3ccc(C(F)(F)F)cn3)CC2)nnc1Cc1ccccc1 [Example 89]
< 0.1 µM | < 0.1 µM | 1 to 10 µM | < 0.1 µM | Cc1cc(Cc2ccc(F)cc2)nnc1N1CCN(c2ccc(C(F)(F)F)cn2)CC1 [Example 90]
0.1 to 1 µM | 0.1 to 1 µM | 1 to 10 µM | 0.1 to 1 µM | Cc1cc(Cc2ccc(Cl)cc2)nnc1N1CCN(c2ccc(C#N)cn2)CC1 [Example 92]
0.1 to 1 µM | 0.1 to 1 µM | 0.1 to 1 µM | 0.1 to 1 µM | N#Cc1ccc(N2CCN(c3nnc(Cc4ccc(F)cc4)c4c3CCCC4)CC2)nc1 [Example 93b]
< 0.1 µM | < 0.1 µM | 0.1 to 1 µM | < 0.1 µM | N#Cc1ccc(N2CCN(c3nnc(Cc4ccc(F)cc4)c4c3CCC4)CC2)nc1 [Example 93c, 6-{4-[4-(4-Fluoro-benzyl)-6,7-dihydro-5H-cyclopenta[d]pyridazin-1-yl]-piperazin-1-yl}-nicotinonitrile]
0.1 to 1 µM | 0.1 to 1 µM | 1 to 10 µM | 0.1 to 1 µM | N#Cc1cccc(C(=O)N2CCC(c3cn(Cc4ccc(F)cc4)c4ccccc34)CC2)c1 [Example 94, 3-{4-[1-(4-Fluoro-benzyl)-1H-indol-3-yl]-piperidine-1-carbonyl}-benzonitrile]
0.1 to 1 µM | 0.1 to 1 µM | 1 to 10 µM | < 0.1 µM | Fc1ccc(Cn2cc(C3CCN(c4ccc(C(F)(F)F)cn4)CC3)c3ccccc32)cc1 [Example 95, 4-[1-(4-Fluoro-benzyl)-1H-indol-3-yl)-5′-trifluoromethyl-3,4,5,6-tetrahydro-2H-[1,2]-bipyridinyl]
0.1 to 1 µM | 0.1 to 1 µM | 0.1 to 1 µM | < 0.1 µM | N#Cc1ccc(Cn2cc(C3CCN(c4ccc(C(F)(F)F)cn4)CC3)c3ccccc32)cc1 [Example 96]
0.1 to 1 µM | 0.1 to 1 µM | 1 to 10 µM | < 0.1 µM | FC(F)(F)c1ccc(N2CCC(c3cn(Cc4ccccc4)c4ccccc34)CC2)nc1 [Example 97]
1 to 10 µM | 1 to 10 µM | 1 to 10 µM | 0.1 to 1 µM | N#Cc1ccc(N2CCC(c3cn(Cc4ccc(F)cc4)c4ccccc34)CC2)nc1 [Example 98]
0.1 to 1 µM | 0.1 to 1 µM | 1 to 10 µM | 0.1 to 1 µM | FC(F)(F)c1ccc(N2CCC(c3cn(Cc4ccc(Br)cc4)c4ccccc34)CC2)nc1 [Example 99]
